Test results reported in US20110250135A1, “Piperazine Derivatives for Binding and Imaging Amyloid Plaques and Their Use” (Bayer Schering Pharma Aktiengesellschaft, priority 2008, published 2011).

Experiments:
[1] = Biodistribution: organ distribution of F-18 signal in mice; type: in vivo, male NMRI mice; conditions: for Organ distribution of F-18 signal, intestine: intestine (with content); for Organ distribution of F-18 signal, stomach: stomach (without content)
Experimental: Biodistribution and excretion studies were performed in male NMRI mice (body weight app. 30g; 3 animals per time point). The animals were kept under normal laboratory conditions at a temperature of 22±2° C. and a dark/light rhythm of 12 hours. Food and water were provided ad libitium. During an acclimation period of at least 3 days before the beginning of the study animals were clinically examined to ascertain the absence of abnormal clinical signs. At 2, 5, 30, 60, 240 min post intravenous injection via the tail vein of ca. 150 kBq in 100 μl of the test compound, urine and feces were quantitatively collected. At the same time points, animals were sacrificed by decapitation and under isoflurane anaesthesia and the following organs and tissues were removed for the determination of radioactivity using a gamma-counter: spleen, liver, kidney, lung, femur, heart, brain, fat, thyroid, muscle, skin, blood, tail, stomach (without content), testicle, intestine (with content), pancreas, adrenals, and the remaining body. For analysis the decay corrected percentage of the injected dose per tissue weight (% ID/g±standard deviation) was calculated.

Aβ plaques = target: T1, Aβ plaques (Homo sapiens, UniProt P05067); assay: Autoradiographical analysis of binding to cryosections from cortex of AD patients and controls; conditions: F-18 labeled compound; Alzheimer's disease patients (AD) vs controls without Aβ plaques
T1 construct: controls without Aβ plaques; from tissue; host or cells: frontal lobe / cortex sections (frozen and paraffin) from AD patients, FTD patients and age-matched controls
Source text: Fresh frozen as well as paraffin embedded sections of the frontal lobe from Alzheimer's dementia patients, frontotemporal dementia patients and age matched controls were used for the study. Frozen sections, sliced at 18 μm thickness on a cryostate (Leica, Germany) and paraffin sections, sliced on a sliding microtom (Leica) at a thickness of 6 μm, were mounted onto glass slides (Superfrost Plus, Fa.Menzel, Braunschweig Germany). Frozen sections were allowed to adhere to the slides for several nights at −20° C. The paraffin sections were deparaffinized using routine histological methods. For binding studies sections were incubated with the F-18 labeled test compound at 10 Bq/μl diluted in 25 mM Hepes buffer, pH 7.4, 0.1% (BSA) (200-300 μl/slide) for 1.5 hour at room temperature in a humidified chamber. For blocking experiments a 1000-fold access of the unlabeled test substance was added to the incubation mixture. After hybridization, sections were washed four times with Hepes buffer, 0.1% BSA (or alternatively two times with 40% ethanol) and finally dipped two times into dest. water for 10 sec. The air-dried sections were exposed to imaging plates and signals were detected by a phosphoimager device (Fuji BAS5000).

T1 sequence (P05067 672-713 limits assumed): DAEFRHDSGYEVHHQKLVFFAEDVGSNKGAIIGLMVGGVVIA

For `O=C(NCC(=O)N1CCN(c2ccc(OCc3ccccc3)cc2)CC1)c1cccc(OCC[18F])c1` [Example 3g, N-{2-[4-(4-Benzyloxy-phenyl)-piperazin-1-yl]-2-oxo-ethyl}-3-(2-[F-18]fluoro-ethoxy)benzamide], the “Organ distribution of F-18 signal, adrenals” value (“Organ distribution … adrenals” below) ([1]; 2 min post i.v. injection) was 7.57 % ID/g, the “Organ distribution … adrenals” value ([1]; 5 min post i.v. injection) was 10.67 % ID/g and the “Organ distribution … adrenals” value ([1]; 30 min post i.v. injection) was 4.49 % ID/g. For the same molecule, the “Organ distribution … adrenals” value ([1]; 60 min post i.v. injection) was 1.77 % ID/g, the “Organ distribution … adrenals” value ([1]; 240 min post i.v. injection) was 1.03 % ID/g and the “Organ distribution of F-18 signal, blood” value ([1]; 2 min post i.v. injection) was 1.72 % ID/g. For the same molecule, the “Organ distribution of F-18 signal, blood” value ([1]; 5 min post i.v. injection) was 2.12 % ID/g, the “Organ distribution of F-18 signal, blood” value ([1]; 30 min post i.v. injection) was 1.85 % ID/g and the “Organ distribution of F-18 signal, blood” value ([1]; 60 min post i.v. injection) was 1.32 % ID/g. For the same molecule, the “Organ distribution of F-18 signal, blood” value ([1]; 240 min post i.v. injection) was 0.57 % ID/g, the “Organ distribution of F-18 signal, brain” value ([1]; 2 min post i.v. injection) was 5.15 % ID/g and the “Organ distribution of F-18 signal, brain” value ([1]; 5 min post i.v. injection) was 4.14 % ID/g. The “Organ distribution of F-18 signal, brain” value ([1]; 30 min post i.v. injection) was 1.66 % ID/g, the “Organ distribution of F-18 signal, brain” value ([1]; 60 min post i.v. injection) was 0.93 % ID/g and the “Organ distribution of F-18 signal, brain” value ([1]; 240 min post i.v. injection) was 0.42 % ID/g. The “Organ distribution of F-18 signal, fat” value ([1]; 2 min post i.v. injection) was 1.97 % ID/g, the “Organ distribution of F-18 signal, fat” value ([1]; 5 min post i.v. injection) was 2.44 % ID/g and the “Organ distribution of F-18 signal, fat” value ([1]; 30 min post i.v. injection) was 4.26 % ID/g. For the same molecule, the “Organ distribution of F-18 signal, fat” value ([1]; 60 min post i.v. injection) was 2.38 % ID/g, the “Organ distribution of F-18 signal, fat” value ([1]; 240 min post i.v. injection) was 0.34 % ID/g and the “Organ distribution of F-18 signal, femur” value ([1]; 2 min post i.v. injection) was 1.95 % ID/g. For the same molecule, the “Organ distribution of F-18 signal, femur” value ([1]; 5 min post i.v. injection) was 1.79 % ID/g, the “Organ distribution of F-18 signal, femur” value ([1]; 30 min post i.v. injection) was 1.05 % ID/g and the “Organ distribution of F-18 signal, femur” value ([1]; 60 min post i.v. injection) was 1.11 % ID/g. For the same molecule, the “Organ distribution of F-18 signal, femur” value ([1]; 240 min post i.v. injection) was 3.06 % ID/g, the “Organ distribution of F-18 signal, heart” value ([1]; 2 min post i.v. injection) was 15.57 % ID/g and the “Organ distribution of F-18 signal, heart” value ([1]; 5 min post i.v. injection) was 8.25 % ID/g. The “Organ distribution of F-18 signal, heart” value ([1]; 30 min post i.v. injection) was 3.47 % ID/g, the “Organ distribution of F-18 signal, heart” value ([1]; 60 min post i.v. injection) was 2.07 % ID/g and the “Organ distribution of F-18 signal, heart” value ([1]; 240 min post i.v. injection) was 0.61 % ID/g. For the same molecule, the “Organ distribution of F-18 signal, intestine” value (shortened to “Organ distribution … intestine”) ([1]; 2 min post i.v. injection) was 1.93 % ID/g, the “Organ distribution … intestine” value ([1]; 5 min post i.v. injection) was 1.87 % ID/g and the “Organ distribution … intestine” value ([1]; 30 min post i.v. injection) was 4.58 % ID/g. For the same molecule, the “Organ distribution … intestine” value ([1]; 60 min post i.v. injection) was 6.47 % ID/g, the “Organ distribution … intestine” value ([1]; 240 min post i.v. injection) was 8.50 % ID/g and the “Organ distribution of F-18 signal, kidney” value (from here on “Organ distribution … kidney”) ([1]; 2 min post i.v. injection) was 15.52 % ID/g. For the same molecule, the “Organ distribution … kidney” value ([1]; 5 min post i.v. injection) was 14.38 % ID/g, the “Organ distribution … kidney” value ([1]; 30 min post i.v. injection) was 11.43 % ID/g and the “Organ distribution … kidney” value ([1]; 60 min post i.v. injection) was 7.70 % ID/g. For the same molecule, the “Organ distribution … kidney” value ([1]; 240 min post i.v. injection) was 1.05 % ID/g, the “Organ distribution of F-18 signal, liver” value ([1]; 2 min post i.v. injection) was 6.35 % ID/g and the “Organ distribution of F-18 signal, liver” value ([1]; 5 min post i.v. injection) was 13.36 % ID/g. For the same molecule, the “Organ distribution of F-18 signal, liver” value ([1]; 30 min post i.v. injection) was 8.75 % ID/g, the “Organ distribution of F-18 signal, liver” value ([1]; 60 min post i.v. injection) was 5.04 % ID/g and the “Organ distribution of F-18 signal, liver” value ([1]; 240 min post i.v. injection) was 1.44 % ID/g. For the same molecule, the “Organ distribution of F-18 signal, lung” value ([1]; 2 min post i.v. injection) was 5.58 % ID/g, the “Organ distribution of F-18 signal, lung” value ([1]; 5 min post i.v. injection) was 4.05 % ID/g and the “Organ distribution of F-18 signal, lung” value ([1]; 30 min post i.v. injection) was 2.55 % ID/g. For the same molecule, the “Organ distribution of F-18 signal, lung” value ([1]; 60 min post i.v. injection) was 1.66 % ID/g, the “Organ distribution of F-18 signal, lung” value ([1]; 240 min post i.v. injection) was 0.59 % ID/g and the “Organ distribution of F-18 signal, muscle” value (from here on “Organ distribution … muscle”) ([1]; 2 min post i.v. injection) was 3.95 % ID/g. For the same molecule, the “Organ distribution … muscle” value ([1]; 5 min post i.v. injection) was 3.17 % ID/g, the “Organ distribution … muscle” value ([1]; 30 min post i.v. injection) was 1.95 % ID/g and the “Organ distribution … muscle” value ([1]; 60 min post i.v. injection) was 1.31 % ID/g. For the same molecule, the “Organ distribution … muscle” value ([1]; 240 min post i.v. injection) was 0.30 % ID/g, the “Organ distribution of F-18 signal, pancreas” value (from here on “Organ distribution … pancreas”) ([1]; 2 min post i.v. injection) was 4.96 % ID/g and the “Organ distribution … pancreas” value ([1]; 5 min post i.v. injection) was 4.26 % ID/g. For the same molecule, the “Organ distribution … pancreas” value ([1]; 30 min post i.v. injection) was 2.21 % ID/g, the “Organ distribution … pancreas” value ([1]; 60 min post i.v. injection) was 1.22 % ID/g and the “Organ distribution … pancreas” value ([1]; 240 min post i.v. injection) was 0.32 % ID/g. For the same molecule, the “Organ distribution of F-18 signal, skin” value ([1]; 2 min post i.v. injection) was 1.72 % ID/g, the “Organ distribution of F-18 signal, skin” value ([1]; 5 min post i.v. injection) was 2.15 % ID/g and the “Organ distribution of F-18 signal, skin” value ([1]; 30 min post i.v. injection) was 1.93 % ID/g. For the same molecule, the “Organ distribution of F-18 signal, skin” value ([1]; 60 min post i.v. injection) was 1.29 % ID/g, the “Organ distribution of F-18 signal, skin” value ([1]; 240 min post i.v. injection) was 0.42 % ID/g and the “Organ distribution of F-18 signal, spleen” value (“Organ distribution … spleen” below) ([1]; 2 min post i.v. injection) was 1.73 % ID/g. For the same molecule, the “Organ distribution … spleen” value ([1]; 5 min post i.v. injection) was 2.22 % ID/g, the “Organ distribution … spleen” value ([1]; 30 min post i.v. injection) was 1.28 % ID/g and the “Organ distribution … spleen” value ([1]; 60 min post i.v. injection) was 0.86 % ID/g. The “Organ distribution … spleen” value ([1]; 240 min post i.v. injection) was 0.36 % ID/g, the “Organ distribution of F-18 signal, stomach” value (“Organ distribution … stomach” for short) ([1]; 2 min post i.v. injection) was 4.78 % ID/g and the “Organ distribution … stomach” value ([1]; 5 min post i.v. injection) was 4.49 % ID/g. For the same molecule, the “Organ distribution … stomach” value ([1]; 30 min post i.v. injection) was 2.20 % ID/g, the “Organ distribution … stomach” value ([1]; 60 min post i.v. injection) was 1.53 % ID/g and the “Organ distribution … stomach” value ([1]; 240 min post i.v. injection) was 0.82 % ID/g. For the same molecule, the “Organ distribution of F-18 signal, tail” value ([1]; 2 min post i.v. injection) was 8.94 % ID/g, the “Organ distribution of F-18 signal, tail” value ([1]; 5 min post i.v. injection) was 9.06 % ID/g and the “Organ distribution of F-18 signal, tail” value ([1]; 30 min post i.v. injection) was 4.73 % ID/g. For the same molecule, the “Organ distribution of F-18 signal, tail” value ([1]; 60 min post i.v. injection) was 2.57 % ID/g, the “Organ distribution of F-18 signal, tail” value ([1]; 240 min post i.v. injection) was 1.98 % ID/g and the “Organ distribution of F-18 signal, testicle” value (shortened to “Organ distribution … testicle”) ([1]; 2 min post i.v. injection) was 1.19 % ID/g. For the same molecule, the “Organ distribution … testicle” value ([1]; 5 min post i.v. injection) was 1.58 % ID/g, the “Organ distribution … testicle” value ([1]; 30 min post i.v. injection) was 1.44 % ID/g and the “Organ distribution … testicle” value ([1]; 60 min post i.v. injection) was 1.84 % ID/g. For the same molecule, the “Organ distribution … testicle” value ([1]; 240 min post i.v. injection) was 0.38 % ID/g, the “Organ distribution of F-18 signal, thyroid” value (“Organ distribution … thyroid” for short) ([1]; 2 min post i.v. injection) was 3.87 % ID/g and the “Organ distribution … thyroid” value ([1]; 5 min post i.v. injection) was 3.67 % ID/g. The “Organ distribution … thyroid” value ([1]; 30 min post i.v. injection) was 1.78 % ID/g, the “Organ distribution … thyroid” value ([1]; 60 min post i.v. injection) was 1.04 % ID/g and the “Organ distribution … thyroid” value ([1]; 240 min post i.v. injection) was 0.56 % ID/g. For the same molecule, the “autoradiographical analysis of binding to cryosections from cortex” value (Aβ plaques) was “Specific binding in plaque-rich regions of AD samples”.
